Laboratory results reported in patent US20210052546A1, “METHODS AND PHARMACEUTICAL COMPOSITIONS FOR THE TREATMENT OF FGFR3-RELATED CHONDRODYSPLASIAS” (INSERM (INSTITUT NATIONAL DE LA SANTÉ ET DE LA RECHERCHE …, priority 2018, published 2021).

Key:
Fgfr3^Y367C/+ femurs = test: Ex vivo femur cultures isolated from Fgfr3Y367C/+ mice
Protocol: (§1) Several sets of ex vivo experiments were performed as previously described (Jonquoy et al., Hum Mol Genet, 21: 841-851, 2012). Femur embryos at day E16.5 from Fgfr3^+/+ (n=23) and Fgfr3^Y367C/+ (n=16) mice were used and incubated for 6 days in DMEM medium with antibiotics and 0.2% BSA (Sigma) supplemented with cocoa F5 or (−)-epicatechin (Sigma-0394-05-90) or DMSO (as control) at a concentration of 10 and 30 μg/ml. To establish the effect of the inhibitors, the left femur was cultured in supplemented medium and compared with the right one cultured in control medium. The bone length was measured at the beginning (before treatment) and at the end of time course. The genotype of Fgfr3^+/+ and Fgfr3^Y367C/+ mice were determined by PCR of tail DNA as previously described (Pannier et al., Biochim Biophys Acta, 1792: 140-147, 2009). All experimental procedures and protocols were approved by the Animal Care and Use Committee.

Fgfr3^+/+ femurs = test: Ex vivo femur cultures isolated from Fgfr3+/+ mice
Protocol: as §1

growth plate cartilage = test: Histology and immunohistochemistry of growth plate cartilage of cultured femur explants; parameters: species or system mice
Protocol: In order to appreciate the impact of the treatment on the growth plate cartilage, we performed histological and immunohistological studies. We selected specific markers of the cartilage, SOX9 and Collagen type X, we tested the expression of the protein FGFR3 and we also evaluated the expression of the phosphorylated Erk1/2 proteins of the […] signalling and activated by FGFR3. Limb explants were fixed after culture in 4% paraformaldehyde at 4° C. and embedded in paraffin. Serial 5 μm sections were stained with Hematoxylin-Eosin using standard protocols for histological analysis or were subjected to immunohistochemical staining. For immunohistochemistry, sections were stained with antibodies specific to FGFR3 (1:100 dilution; Sigma), anti-Collagen type X (1:50 dilution; Quartett) anti-SOX9 (1:1000 dilution; Abcam), anti-phosphorylated Erk1/2 (1:100 dilution; Cell signaling) using the Dako Envision system kit. Images were captured with an Olympus PD70-IX2-UCB microscope.

[1] = tested on: Fgfr3^Y367C/+ chondrocytes; test: Primary cilium length in antenatal E16.5 Fgfr3Y367C/+ chondrocytes (immunocytochemistry); assay type: cell-based, mice
Protocol: Cultured chondrocytes issued from Fgfr3^Y367C/+ were fixed at room temperature for 10 min in methanol (chilled at −20° C.), and then washed with PBS. Samples were permeabilized for 10 min with PBS containing 0.1% Triton-X100 (Sigma-Aldrich), then washed three times for 5 min. Samples were incubated with PBS containing 10% goat serum (Biowest) for 60 min at room temperature. Primary antibodies were incubated at 4° C. overnight. The following primary antibodies were used: mouse IgG1 anti-γ-tubulin (Sigma-Aldrich #T6557, 1:1000) and rabbit anti-Ar113b (Proteintech #177111-AP, 1:500). Cells were washed with PBS, and then incubated with goat anti-mouse IgG1 coupled with AlexaFluor 488 (Life Technologies, 1:1000) and goat anti-rabbit coupled with AlexaFluor 647 (Life Technologies, 1:1000) secondary antibodies for 2h at room temperature in the dark. Samples were extensively washed and mounted with a solution of DAPI-Fluoromount G (SouthernBiotech) containing DAPI (4′,6′-diamidino-2-phenylindole) for nuclear staining. Image acquisition were captured using a Spinning disk confocal microscope. […] In order to compare measured data, all confocal experiments showing PC length was acquired in same conditions using slice thickness of 0.20 μm and a pixel size of 60 nm. […] We next measured in 2D the PC lengths by IMARIS software (Bitplane).

[2] = proximal and distal femurs, immunohistochemistry

**Q.** Oc1cc(O)c2c(c1)O[C@H](c1ccc(O)c(O)c1)[C@H](O)C2 [(−)-epicatechin, (2R,3R)-2-(3,4-dihydroxyphenyl)-3,4-dihydro-2H-chromene-3,5,7-triol] was tested. Which “size of the femurs, Fgfr3Y367C/+” value (Fgfr3^Y367C/+ femurs; 1 μg/ml (FIG. 13)) did it give?
**A.** did not improve

**Q.** And the “percentage of femur growth in Fgfr3Y367C/+ mice versus Fgfr3+/+ mice” value (Fgfr3^Y367C/+ femurs; 10 μg/ml, 6 days culture)?
**A.** more important

**Q.** And the “increase of length of the Fgfr3Y367C/+ femurs comparing to Fgfr3+/+ femurs” value (Fgfr3^Y367C/+ femurs; 10 μg/ml, E16.5 femurs, 6 days culture)?
**A.** +10%

**Q.** And the “size of the femurs, Fgfr3+/+” value (Fgfr3^+/+ femurs; 1 μg/ml (FIG. 13))?
**A.** did not improve

**Q.** What about the “growth of the Fgfr3+/+ femurs” value (Fgfr3^+/+ femurs; 10 μg/ml, 6 days culture) of the same compound?
**A.** did not impair

**Q.** And the “reserve, proliferative and pre-hypertrophic zones of the growth plate cartilage” value (growth plate cartilage; H&E staining)?
**A.** increased

**Q.** What about the “whole growth plate cartilage” value (growth plate cartilage; H&E staining) of the same compound?
**A.** improved

**Q.** What about the epiphysis size (growth plate cartilage; proximal and distal femur, histology) of the same compound?
**A.** increase size

**Q.** And the FGFR3 expression (growth plate cartilage; [2])?
**A.** strongly decreased

**Q.** And the SOX9 expression (growth plate cartilage; [2])?
**A.** strongly decreased

**Q.** What about the “collagen type X expression” value (growth plate cartilage; [2]) of the same compound?
**A.** not modified

**Q.** What about the “phosphorylated Erk1/2 expression” value (growth plate cartilage; [2]) of the same compound?
**A.** slightly decreased

**Q.** And the “effect on primary cilium” value ([1]; Fgfr3Y367C/+ chondrocytes)?
**A.** elongation

**Q.** What about the “primary cilium average length (A)” value ([1]; Fgfr3Y367C/+ chondrocytes treated with (−)-epicatechin, n=113, N=3, mean+S.E.M., untreated 2.10+0.06, in µm) of the same compound?
**A.** 2.45+0.09
